The test system of one assay is catecholamine transport. Description: Catecholamine (3H-dopamine) transport in chromaffin granule membranes. The assay is classed as biochemical, bovine. How it is done: (§1) Chromaffin granule membranes were prepared from adrenal glands collected from slaughtered cattle according to Reference A (Nathan Nelson et al., 1988, Chromaffin Granule Proton Pump, Methods in Enzymology, 157, 619-633). Chromaffin granule membranes prepared by sucrose density gradient centrifugation were suspended in 2 ml of SME buffer (20 mM MOPS-tris (pH 7.0), 0.3 M sucrose, 5 mM EDTA, 10 µg/ml leupeptin, and 10 µg/ml pepstatin) + 25% glycerol, and the resulting suspension was aliquoted and stored at -80°C. Under these conditions, the ATP transport activity, the V-ATPase activity, and the catecholamine transport activity remain fully active for at least one year.
A catecholamine transport inhibition experiment was carried out in the same manner as the ATP transport experiment except that the experiment used a measurement liquid containing 20 mM MOPS-tris (pH 7.0), 0.1 M sucrose, 0.1 M potassium chloride, 5 mM magnesium acetate, and about 5 µg of chromaffin granule membranes. To 0.5 ml of the measurement liquid, 2 mM ATP was added, and the resulting mixture was incubated at 30°C for about 5 minutes, followed by addition of^3 [H]-dopamine thereto to a final concentration of 10 µM. After further incubation at 30°C for 15 minutes, 0.2 ml of the reaction liquid was subjected to suction filtration through a Millipore MCE membrane filter with a pore size of 0.45 µm, and the radioactivity on the filter was measured (N = 3). The substrate, ^3[H]-dopamine, was prepared by mixing 3,4-[RING-2,5,6-^3H]dihydroxyphenylethylamine (dopamine) (30 Ci/mmol) (manufactured by New England Nuclear) with dopamine hydrochloride (manufactured by LKT Laboratories) such that a final concentration of 0.1 mM was achieved during the use.
(§2) Chromaffin granule membrane vesicles were prepared in the same manner as in Example 5, and uptake of radiolabeled ATP into the vesicles was measured. Transport activity of catecholamine (dopamine) and ATP-dependent proton transport by V-ATPase were also measured in the same manner as in Example 5.

For the next assay, the target named is T1, V-ATPase (Bos taurus, UniProt P31404).
T1 construct: from tissue; host or cells: bovine adrenal medulla chromaffin granule membranes
T1 sequence (P31404 whole entry, looked up): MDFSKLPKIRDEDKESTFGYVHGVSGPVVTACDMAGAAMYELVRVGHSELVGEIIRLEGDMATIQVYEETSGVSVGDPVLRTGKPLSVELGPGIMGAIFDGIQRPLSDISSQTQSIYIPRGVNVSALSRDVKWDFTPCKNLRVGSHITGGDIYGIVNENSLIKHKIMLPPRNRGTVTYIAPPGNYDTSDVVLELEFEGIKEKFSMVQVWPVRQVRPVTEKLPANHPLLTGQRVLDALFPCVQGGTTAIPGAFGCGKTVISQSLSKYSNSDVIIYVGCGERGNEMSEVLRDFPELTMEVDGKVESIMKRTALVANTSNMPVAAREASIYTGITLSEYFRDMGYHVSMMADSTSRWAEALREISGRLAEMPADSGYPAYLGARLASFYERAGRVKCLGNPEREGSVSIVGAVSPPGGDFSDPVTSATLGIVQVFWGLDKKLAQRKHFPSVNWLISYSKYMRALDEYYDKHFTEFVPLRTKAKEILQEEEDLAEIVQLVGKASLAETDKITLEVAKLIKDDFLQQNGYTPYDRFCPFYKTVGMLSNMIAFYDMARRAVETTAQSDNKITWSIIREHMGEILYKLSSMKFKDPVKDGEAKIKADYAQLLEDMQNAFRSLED
Nature of the assay: ATP-dependent proton transport by V-ATPase (acridine orange / oxonol-V fluorescence quenching). The assay is classed as biochemical, bovine. The procedure: as §1
ATP-dependent proton transport by V-ATPase was measured according to Reference B. Proton transport activity was measured using a spectrofluorometer at excitation wavelength of 492 nm and a fluorescence wavelength 540 nm, wherein fluorescence quenching of acridine orange was used as an index (N = 2). The transmembrane potential generated was measured using a spectrofluorometer at an excitation wavelength of 580 nm and a fluorescence wavelength of 630 nm, wherein fluorescence quenching of oxonol-V was used as an index (N = 2). The acridine measurement liquid (2 ml) contained 20 mM MOPS-tris (pH 7.0), 0.2 M sucrose, 0.1 M potassium chloride, 5 mM magnesium acetate, 0.2 µg valinomycin, 2 µM acridine orange, and about 20 µg of chromaffin granules. The oxonol-V measurement liquid (2 ml) contained 20 mM MOPS-tris (pH 7.0), 0.3 M sucrose, 5 mM magnesium acetate, 5 µM oxonol-V, and about 20 µg of chromaffin granules.
as §2

Where [1] appears, read: concentrations of up to 5 mM, data not shown.

Turning to `C=C(OP(=O)(O)O)C(=O)O` [PEP, phosphoenolpyruvic acid], the “inhibition of catecholamine transport” value in the assay with catecholamine transport (setting [1]) is “did not inhibit”. Besides, the “ATP-dependent dopamine transport activity” value in the assay on catecholamine transport (in the presence of 5 mM PEP, control 11.07 ± 0.129, N = 3) was found to be 12.41 ± 0.250 nmol/mg protein. Further, the “quenching of oxonol-V fluorescence (transmembrane potential)” value on V-ATPase (addition of 5 mM PEP, ATP alone quenched by 40%, N = 2) is recorded as “did not change the level of quenching”. Besides, the “quenching of acridine orange fluorescence (proton transport)” value at V-ATPase (addition of 5 mM PEP, ATP alone quenched by 62%, N = 2) is given as “did not change the level of quenching”. For the same compound, at V-ATPase (setting [1]), the “inhibition of V-ATPase” value was “did not inhibit”.

The values above are taken from patent EP4696306A1, “ADENOSINE TRIPHOSPHATE SECRETION INHIBITOR, HEPATIC STELLATE CELL ACTIVATION INHIBITOR, HEPATIC STELLATE CELL DEACTIVATOR, HEPATIC FIBROSIS THERAPEUTIC AGENT, NON-ALCOHOLIC STEATOHEPATITIS THERAPEUTIC AGENT, PSORIASIS THERAPEUTIC AGENT, AND USE OF COMPOUND FOR PRODUCING ADENOSINE TRIPHOSPHATE …” (KURUME UNIVERSITY, priority 2023, dated 2024).
